Tests used:
[1] = system: phospho-ERK1/2 in MIA PaCa-2 cells (express KRAS G12C); assay: ERK1/2 phosphorylation in MIA PaCa-2 cells; assay type: cell-based, human; set-up: key: X: KRAS G12C bound and modulated in cells
Protocol: MIA PaCa-2 cells were cultured in Dulbecco's Modified Eagle's Medium (Wisent) supplemented with 10% FBS, 2.5% horse serum, and 1% penicillin/streptomycin. Cells were seeded in 6-well plates at 500,000 cells/well and incubated at 37° C., 5% CO2 for 16 hours. Cells were treated with the indicated concentrations of compound or DMSO alone and incubated at 37° C., 5% CO2 for 6 or 24 hours. Conditioned media was discarded, and adherent cells were washed with PBS before they were scraped. Cell suspensions were centrifugated at 2,000 RPM for 5 minutes at 4° C. and supernatants were discarded. Cell pellets were resuspended with 1×RIPA buffer (Millipore) and incubated on ice for 15 minutes. Protein lysates were extracted by centrifugating at 20,000 RPM for 20 minutes at 4° C. Proteins were separated and total KRas protein levels were quantified by Simple Western Immunoassay (ProteinSimple) using the 2-40 kDa Separation Module for Jess according to the manufacturer's protocol, using a protein concentration of 0.5 μg/μl and antibodies targeting KRas (clone #4F3, Sigma) and GAPDH (clone #14C10, Cell Signaling) diluted to 1:10 and 1:1600, respectively, where the latter was used as a loading control. A 3:1 ratio of rabbit to mouse HRP-conjugated secondary antibodies was used for detection. KRas protein levels were quantified relative to GAPDH loading levels and subsequently normalized to the DMSO control. Phosphorylated ERK1/2 levels were quantified by Simple Western Immunoassay (ProteinSimple) using the Protein Normalization Assay Module for Jess according to the manufacturer's protocol using a protein concentration of 0.5 μg/μl and an antibody targeting phosphor-ERK1/2 (clone #D13.14.4E, Cell Signalling) diluted to 1:10. Phosphorylated ERK1/2 levels were normalized to the Jess Protein Normalization Reagent loading control and subsequently to the DMSO control.
MIA PaCa-2 cells were cultured in Dulbecco's Modified Eagle's Medium (Wisent) supplemented with 10% FBS, 2.5% horse serum, and 1% penicillin/streptomycin. Cells were seeded in 96-well plates at a density of 25,000 cells/well and incubated at 37° C., 5% CO2 for 24 hours. The next day, cells were starved in cell culture media containing 1% FBS only at 37° C., 5% CO2 for 16 hours. Following starvation, serially-diluted compounds or DMSO alone were added to cells and incubated at 37° C., 5% CO2 for 1 or 3 hours. Prior to cell lysis, 25 ng/ml human epidermal growth factor (hEGF) (Sigma) was added to the cells and incubated at 37° C., 5% CO2 for 10 minutes. Conditioned media was discarded, and adherent cells lysed and basal ERK1/2 phosphorylation levels were measured using the Phospho-ERK (Thr202/Tyr204) Cellular HTRF kit (Perkin Elmer) according to the manufacturer's protocol. The fluorescent signal of the acceptor antibody at a wavelength of 665 nm was normalized to that of the donor antibody at 620 nm. HTRF ratios were plotted and relative IC50 values were obtained using Prism (GraphPad).

KRAS G12C = KRAS G12C (Homo sapiens, UniProt P01116, G12C); assay: SOS1-catalyzed KRAS coupled nucleotide exchange assay (Alpha technology); assay type: biochemical; set-up: His; key: A: KRAS G12C bound and modulated; conditions: inhibition of SOS1 mediated KRAS nucleotide exchange
Protocol: Method I: The inhibition of the SOS1-catalyzed nucleotide exchange activity of KRAS (e.g., KRAS G12C/C118A) was measured using Alpha (Amplified Luminescent Proximity Homogeneous Assay) technology. 20 nM GDP-bound human KRAS (G12C/C118A) protein was incubated with two-fold serially-diluted test compound or DMSO for 5 minutes at ambient temperature in reaction buffer (25 mM HEPES, pH 7.4; 10 mM MgCl2; 0.01% Triton X-100). For all subsequent steps, DTT was added to the reaction buffer at a final concentration of 1 mM. Next, GTP and SOS-1 were added in DTT-reaction buffer at final concentrations of 1.25 mM or 500 nM, respectively, and incubated at RT for 30 minutes. Finally, c-RAF RBD (50 nM final), Alpha glutathione donor beads (PerkinElmer; 20 μg/mL final), and AlphaLISAnickel chelate acceptor beads (PerkinElmer; 20 μg/mL final), all diluted in DTT-reaction buffer, were added. The reaction mixture was incubated at RT for 5 min, and then the plates were read on an EnVision® Multilabel Reader using the AlphaScreen protocol. Luminescence signal was measured at 570 nm following a 180 ms excitation at 680 nm. Signal intensity corresponded with the association of c-RAF RBD with GTP-bound KRAS G12C/C118A and was normalized to DMSO control.
Method II: Inhibition of the SOS1-catalyzed nucleotide exchange activity of KRAS^G12C was measured using Alpha technology (PerkinElmer). 50 nM GDP-bound human KRAS^G12C protein was incubated with serially-diluted compound or DMSO for 2 hrs at RT in RBD-RAS binding buffer (BPSBioscience). 1 mM GTP and 500 nM SOS-1 were added to the reaction mixture and incubated at RT for 30 min. GST-tagged RBD-cRAF was then added to the reaction mixture at a final concentration of 2.5 nM and incubated at RT for 30 min. Finally, Alpha Glutathione acceptor beads and Nickel chelate donor beads (PerkinElmer) were diluted to 1:500 and 1:250, respectively, and added to the reaction mixture. The final reaction was incubated at RT for 30 min. Plates were read on a TECAN SPARK® Multiplate Reader. The luminescence signal was measured at 615 nm following excitation at 680 nm. Signal intensity was normalized to DMSO control.

| Structure (SMILES) | pERK - MIA PaCa-2 - (6 hours, 5 uM) [1] | KRAS-SOS1 Nucleotide Exchange (KRAS G12C) |
| --- | --- | --- |
| C[C@H]1CN(c2c(F)c(F)c(F)c(F)c2S(C)(=O)=O)CCN1c1ncnc2cc(-c3ccccc3F)c(Cl)cc12 [Compound 34A, (S)-6-chloro-7-(2-fluorophenyl)-4-(2-methyl-4-(2,3,4,5-tetrafluoro-6-(methylsulfonyl)phenyl)piperazin-1-yl)quinazoline] | X | – |
| O=S(=O)(c1c(F)c(F)c(F)c(F)c1OC(F)F)N1CCN(c2ncnc3c2CCN(c2cccc4ccccc24)C3)CC1 [Compound 30A, 4-(4-((2-(difluoromethoxy)-3,4,5,6-tetrafluorophenyl)sulfonyl)piperazin-1-yl)-7-(naphthalen-1-yl)-5,6,7,8-tetrahydropyrido[3,4-d]pyrimidine] | – | A |
| C[C@H]1CN(c2c(F)c(F)c(S(C)(=O)=O)c(F)c2F)CCN1c1ccnc2c(F)c(-c3c(O)cccc3F)c(Cl)cc12 (single isomer, unassigned) [Compound 25A] | – | A |
| CSc1c(F)c(F)c(N2CCN(c3ccnc4c(F)c(-c5c(O)cccc5F)c(Cl)cc34)[C@@H](C)C2)c(F)c1F [Compound 29A, 2-(6-chloro-8-fluoro-4-((S)-2-methyl-4-(2,3,5,6-tetrafluoro-4-(methylthio)phenyl)piperazin-1-yl)quinolin-7-yl)-3-fluorophenol] | – | A |
| Cc1cccc(C)c1-c1cc2nccc(N3CC(Nc4c(F)c(F)c(S(C)(=O)=O)c(F)c4F)C3)c2cc1Cl [Compound 22A, 1-(6-chloro-7-(2,6-dimethylphenyl)quinolin-4-yl)-N-(2,3,5,6-tetrafluoro-4-(methylsulfonyl)phenyl)azetidin-3-amine] | – | A |
| C[C@H]1CN(c2c(F)c(F)c(F)c(F)c2[S+](C)[O-])CCN1c1ncnc2cc(-c3ccccc3F)c(Cl)cc12 (stereo partly drawn) [Compound 38A, 6-chloro-7-(2-fluorophenyl)-4-((2S)-2-methyl-4-(2,3,4,5-tetrafluoro-6-(methylsulfinyl)phenyl)piperazin-1-yl)quinazoline] | – | A |
| O=S(=O)(NC1CN(c2ncnc3c2CCN(c2cccc4cccc(Cl)c24)C3)C1)c1c(F)c(F)c(F)c(F)c1F [Compound 21A, N-(1-(7-(8-chloronaphthalen-1-yl)-5,6,7,8-tetrahydropyrido[3,4-d]pyrimidin-4-yl)azetidin-3-yl)-2,3,4,5,6-pentafluorobenzenesulfonamide] | – | A |
| C[C@H]1CN(c2c(F)c(F)c(S(C)(=O)=O)c(F)c2F)CCN1c1ccnc2c(F)c(-c3c(O)cccc3F)c(Cl)cc12 (single isomer, unassigned) [Compound 26A] | – | A |
| C[C@H]1CN(c2c(F)c(F)c(S(C)(=O)=O)c(F)c2F)CCN1c1ccnc2c(F)c(-c3c(O)cccc3F)c(Cl)cc12 (racemic) [Compound 24A, 2-(6-chloro-8-fluoro-4-((S)-2-methyl-4-(2,3,5,6-tetrafluoro-4-(methylsulfonyl)phenyl)piperazin-1-yl)quinolin-7-yl)-3-fluorophenol] | – | A |
| Cc1cccc(C)c1-c1cc2nccc(N3CCN(Cc4c(F)c(F)c(F)c(F)c4S(C)(=O)=O)C[C@@H]3C)c2cc1Cl [Compound 45A, (S)-6-chloro-7-(2,6-dimethylphenyl)-4-(2-methyl-4-(2,3,4,5-tetrafluoro-6-(methylsulfonyl)benzyl)piperazin-1-yl)quinoline] | – | A |
| COc1cc(N2CCc3c(ncnc3N3CCN(S(=O)(=O)c4c(F)c(F)c(F)c(F)c4C(F)(F)F)CC3)C2)c2ccccc2c1 [Compound 40A, 7-(3-methoxy-1-naphthyl)-4-[4-[2,3,4,5-tetrakis(fluoranyl)-6-[tris(fluoranyl)methyl]phenyl]sulfonylpiperazin-1-yl]-6,8-dihydro-5H-pyrido[3,4-d]pyrimidine] | X | – |
| C[C@H]1CN(Cc2c(F)c(F)c(F)c(F)c2[S+](C)[O-])CCN1c1ncnc2cc(-c3ccccc3F)c(Cl)cc12 (stereo partly drawn) [Compound 46A, 6-chloro-7-(2-fluorophenyl)-4-((2S)-2-methyl-4-(2,3,4,5-tetrafluoro-6-(methylsulfinyl)benzyl)piperazin-1-yl)quinazoline] | X | – |
| CSc1c(F)c(F)c(F)c(F)c1N1CC(Nc2ncnc3cc(-c4ccccc4F)c(Cl)cc23)C1 [Compound 47A, 6-chloro-7-(2-fluorophenyl)-N-(1-(2,3,4,5-tetrafluoro-6-(methylthio)phenyl)azetidin-3-yl)quinazolin-4-amine] | – | A |
| O=S(=O)(c1c(F)c(F)c(F)c(F)c1C(F)(F)F)N1CCN(c2ncnc3c2CCN(c2cccc4cccc(Cl)c24)C3)CC1 [Compound 32A, 7-(8-chloronaphthalen-1-yl)-4-(4-((2,3,4,5-tetrafluoro-6-(trifluoromethyl)phenyl)sulfonyl)piperazin-1-yl)-5,6,7,8-tetrahydropyrido[3,4-d]pyrimidine] | X | – |
| O=S(=O)(c1c(F)c(F)c(F)c(F)c1C(F)(F)F)N1CCN(c2ncnc3c2CCN(c2cccc4ccccc24)C3)CC1 [Compound 33A, 7-(naphthalen-1-yl)-4-(4-((2,3,4,5-tetrafluoro-6-(trifluoromethyl)phenyl)sulfonyl)piperazin-1-yl)-5,6,7,8-tetrahydropyrido[3,4-d]pyrimidine] | X | – |
| Cc1cccc(C)c1-c1cc2nccc(N3CC(Nc4c(F)c(F)c([S@+](C)[O-])c(F)c4F)C3)c2cc1Cl (racemic) [Compound 27A] | – | A |
| C[S+]([O-])c1c(F)c(F)c(NC2CN(c3ncnc4cc(-c5ccccc5F)c(Cl)cc34)C2)c(F)c1F (racemic) [Compound 28A, 1-(6-chloro-7-(2-fluorophenyl)quinazolin-4-yl)-N-(2,3,5,6-tetrafluoro-4-(methylsulfinyl)phenyl)azetidin-3-amine] | – | A |
| CS(=O)(=O)c1c(F)c(F)c(NC2CN(c3ncnc4cc(-c5ccccc5F)c(Cl)cc34)C2)c(F)c1F [Compound 23A, 1-(6-chloro-7-(2-fluorophenyl)quinazolin-4-yl)-N-(2,3,5,6-tetrafluoro-4-(methylsulfonyl)phenyl)azetidin-3-amine] | – | A |

— patent US20240092756A1, “METHODS AND COMPOSITION FOR KRAS MODIFICATIONS” (2692372 ONTARIO, INC., priority 2020, published 2024)
